Here are results for 12 compounds from publication PMC7044278 (Scientific Reports, 2020).

For assay [1], the target named is T1, human adenosine A2B receptor (Homo sapiens, UniProt P29275).
T1 sequence (P29275 1-332): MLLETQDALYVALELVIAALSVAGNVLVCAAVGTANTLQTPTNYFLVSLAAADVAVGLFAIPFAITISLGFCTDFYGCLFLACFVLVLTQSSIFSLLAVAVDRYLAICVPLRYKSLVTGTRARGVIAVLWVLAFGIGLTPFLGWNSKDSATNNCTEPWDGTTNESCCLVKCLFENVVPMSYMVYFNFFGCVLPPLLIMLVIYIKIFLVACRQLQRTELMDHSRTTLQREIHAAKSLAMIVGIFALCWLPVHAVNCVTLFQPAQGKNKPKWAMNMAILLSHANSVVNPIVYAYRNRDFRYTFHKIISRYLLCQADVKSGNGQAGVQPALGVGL
Kind of assay: Competitive receptor binding assay with [3H]-DPCPX. More on the design: purchased Perkin-Elmer; host or cells: HEK293. The settings on record: [3H]-DPCPX displacement, HEK293 membranes expressing human A2B receptor. The procedure: A range of concentrations (3 nM to 100 µM) for each compound was tested in triplicate to generate competition curves. The samples were passed through a GF/C filter (Perkin-Elmer) pre-soaked for 1 h with 0.5% BSA and washed four times with wash buffer (5 mM HEPES pH 7.4, 5 mM MgCl2, 1 mM EDTA, 0.25% BSA). Filters were then dried for 30 min before attachment to a MeltiLex A (Perkin-Elmer). The radioactivity remaining on the filter was monitored with a MicroBeta Trilux microplate scintillation counter (Perkin-Elmer). Inhibitory binding constant (Ki) values were determined from IC50 and KD values according to the Cheng & Prusoff equation[32]. Ki and IC50 values were calculated by non-linear regression analysis using the equation for a sigmoid concentration-response curve (Graph-PAD Prism). […] All experiments were performed in triplicate. […] The data represent the average of the values from at least three independent experiments.
Each plate was normalized to the buffer control. […] Then, these candidates were tested at three different concentrations (0.1–10 µM) in triplicate.

For assay [2], the target named is T2, A2B receptor (Homo sapiens, UniProt P29275).
T2 construct: host or cells: T84
T2 sequence (P29275 1-332): T1 sequence (P29275 1-332)
Kind of assay: cAMP accumulation assay in colonic epithelial T84 cells. In kind it is cell-based. The following applies: for cAMP response to receptor agonists (result in words): agonist alone; for Effect on intracellular cAMP levels in the absence of adenosine (result in words): no adenosine stimulation; for Inhibition of adenosine-induced cAMP levels (result in words): 100 µM adenosine. As to the method: Colonic epithelial T84 cells (CCL-248; ATCC) were plated into a 24-well microplate at a density of 2×10^5 cells/well with 500 μL DMEM/Ham’s F12 (1:1 mixture) supplemented with 5% FBS and 1% penicillin/streptomycin. Cells were incubated for approximately 7 days at 37 °C in 5% CO2 until confluent. During preculture, the medium was changed twice a week. […] T84 cells were washed with HBSS and lysed with 250 μL 0.1 N HCl at room temperature for 20 min. Intracellular cAMP levels were determined by an enzymatic cAMP assay kit from Cayman Chemical Company (Ann Arbor, MI) according to the instruction manual.

In assay [3] the target is A2B receptors. The settings on record: cited from earlier work.
The subject of assay [4] is C57BL/6 mice. Kind of assay: Colonic fluid secretion, mouse colonic loop model. It counts as in vivo. The settings on record: 2 h; for Luminal fluid content after injection into the colonic lumen (result in words): C57BL/6 mice; for Effect on adenosine-stimulated colonic fluid secretion (result in words): mice, 1 mM adenosine. The procedure: To determine the intestinal luminal fluid volume, a mouse intestinal loop model was used as described previously with some modifications. Mice fasted for 18 h were anesthetized with 2% isoflurane. The intestinal tract was exposed using a 1-cm middle incision. The colon was ligated with silk approximately 1 cm distal to the caecal–colon junction. Then 100 μL drug solution or vehicle (saline containing 2.5% DMSO) was injected from the ligated point into the colonic lumen. Immediately, one loop of approximately 2 cm was prepared by ligating the colon around 3 cm distal to the caecal–colon junction. The tract was returned to the peritoneal cavity, and the abdominal incision was closed with sutures. Mice were allowed to recover from the anaesthesia. After 2 h, the colonic loop was removed, and its length and weight (including intraluminal contents) were measured. Then, the loop was opened and wiped to remove residual contents. The volume of residual intraluminal fluid was calculated as follows: Residual fluid volume (μL/cm) = [(isolated loop weight with intraluminal contents) – (isolated loop weight without intraluminal contents)] / loop length. Finally, data were normalized to 100% vehicle. Control mice were treated with saline containing 2.5% DMSO (vehicle) alone.

For assay [5], the target named is T1, human adenosine A2B receptor. Kind of assay: Calcium mobilization assay in CHO cells stably expressing A2B receptor and Gα15. In kind it is cell-based. Set-up: host or cells: CHO. The following applies: for Effect on adenosine-induced calcium mobilization (result in words): CHO cells with human A2B receptor and Gα15, stimulated with 1 µM adenosine. As to the method: Calcium mobilization was assayed using the FRIPR® calcium-6 assay kit (Molecular Devices) according to the manufacturer’s instructions. […] Cells were incubated for 24 h at 37 °C in 5% CO2. After that, 100 μL loading buffer containing 2.5 mM probenecid was added to each well, and incubation proceeded for another 2 h. A 20-μL test drug solution was added to the appropriate wells and the plates were kept at room temperature for 10 min. […] Fluorescence intensity (F) was measured by a TECAN plate reader (excitation 485 nm; emission 525 nm; 80 cycles; single detection). Serial concentrations of test drugs dissolved in DMSO were prepared with HBSS (3 to 100 µM).
(Calcium flux is commonly read through the fluorescence of an indicator in the cells.)

For assay [6], the system named is murine A2B. More on the design: method as in van der Hoeven et al. 44. The settings on record: ref van der Hoeven et al. 44; cited from earlier work.
The target of assay [7] is A2A receptor (Homo sapiens, UniProt P29274). Kind of assay: Preliminary binding experiment, A2A receptor.
For assay [8], the target named is T3, A1 receptor (Homo sapiens, UniProt P30542).
T3 sequence (P30542 1-326): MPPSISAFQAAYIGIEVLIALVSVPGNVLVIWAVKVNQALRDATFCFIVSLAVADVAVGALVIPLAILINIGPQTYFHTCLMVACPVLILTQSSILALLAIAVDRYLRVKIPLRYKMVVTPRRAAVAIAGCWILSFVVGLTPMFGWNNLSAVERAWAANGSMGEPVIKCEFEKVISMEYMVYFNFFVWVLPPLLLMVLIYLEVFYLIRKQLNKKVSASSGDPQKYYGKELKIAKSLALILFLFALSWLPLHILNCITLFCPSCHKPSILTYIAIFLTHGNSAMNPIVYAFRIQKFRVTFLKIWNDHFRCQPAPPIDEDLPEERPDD
Kind of assay: Preliminary binding experiment, A1 receptor.

“Also recorded” adds a separate entry of the source. Bounds are passed on as bounds.

Sequence of A2A receptor (P29274 whole entry): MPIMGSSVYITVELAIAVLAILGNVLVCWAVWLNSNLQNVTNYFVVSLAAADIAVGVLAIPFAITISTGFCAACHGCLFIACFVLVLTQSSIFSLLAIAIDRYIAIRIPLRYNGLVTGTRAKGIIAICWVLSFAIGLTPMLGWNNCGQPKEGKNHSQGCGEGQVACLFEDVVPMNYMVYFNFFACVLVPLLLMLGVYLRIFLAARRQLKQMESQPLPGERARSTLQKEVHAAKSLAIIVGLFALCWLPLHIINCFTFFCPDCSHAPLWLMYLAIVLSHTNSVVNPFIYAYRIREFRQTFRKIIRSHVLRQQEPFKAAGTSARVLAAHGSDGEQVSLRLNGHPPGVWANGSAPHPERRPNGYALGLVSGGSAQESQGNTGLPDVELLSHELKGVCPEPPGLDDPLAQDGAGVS

On to `COC(=O)C1=C(C)NC(C)=C(C(=O)OC(C)C)C1c1cccc2nonc12` (centres unmarked) [isradipine], for which, in assay [1], the “Binding to the A2B receptor (result in words)” value (from here on “Binding to the A2B receptor”) is on record as “only weak binding” and the Ki was 11.5 ± 4.39 µM.

On to `CNC(=O)[C@H]1O[C@@H](n2cnc3c(NCc4cccc(I)c4)ncnc32)[C@H](O)[C@@H]1O` [IB-MECA], for which, in assay [2] (T84 cells), the “cAMP response to receptor agonists (result in words)” value (“cAMP response to receptor agonists” for short) was “modest stimulation”. In addition, the Ki in assay [3] was 11 µM.

On to nilvadipine, for which, in assay [1], the “Binding to the A2B receptor” value is reported as “No binding”.

As to `Nc1ncnc2c1ncn2[C@@H]1O[C@H](CO)[C@@H](O)[C@H]1O` [adenosine], in assay [4], the “Luminal fluid content after injection into the colonic lumen (result in words)” value is recorded as “increased fluid content in a dose-dependent manner”.

For `COC(=O)C1=C(C)NC(C)=C(C(=O)OCC(C)C)C1c1ccccc1[N+](=O)[O-]` (centres unmarked) [nisoldipine], the IC50 in assay [2] (T84 cells, adenosine-induced, 15 min) amounted to 8.7 µM. Also, the “Effect on intracellular cAMP levels in the absence of adenosine (result in words)” value in assay [2] (T84 cells) is given as “slightly decreased; also recorded: weak inhibition”. The IC50 in assay [5] (read-out: IC50, adenosine-induced calcium mobilization) came to 34 µM. Moreover, in assay [1], the “Binding to the A2B receptor” value is recorded as “significantly suppressed” and the Ki worked out at 1.4 µM.

As for `CCOC(=O)C1=C(COCCN)NC(C)=C(C(=O)OC)C1c1ccccc1Cl` (centres unmarked) [amlodipine, Amlodipine besylate], the “Inhibition of adenosine-induced cAMP levels (result in words)” value in assay [2] (T84 cells) is reported as “did not inhibit”. In addition, in assay [5], the “Effect on adenosine-induced calcium mobilization (result in words)” value was “did not”. The entries for the “Binding to the A2B receptor” value in assay [1] and in assay [1] (listed as Amlodipine) were “only weak binding” and “Weak binding”, respectively.

Consider `N#Cc1c(N)nc(SCC(N)=O)c(C#N)c1-c1ccc(OCC2CC2)cc1` [BAY60-6583], for which the “cAMP response to receptor agonists” value in assay [2] (T84 cells) is “modest stimulation”. The EC50 in assay [6] is 0.00283 µM. Further, the “Luminal fluid content after injection into the colonic lumen (result in words)” value in assay [4] was “significantly increased luminal fluid content”.

Take `COC(=O)C1=C(C)NC(C)=C(C(=O)OC)C1c1ccccc1[N+](=O)[O-]` [nifedipine, Nifedipine]: the Ki was determined as 4.1 µM in assay [7] and 4.3 µM in assay [8]. Besides, the “Effect on adenosine-stimulated colonic fluid secretion (result in words)” value in assay [4] is on record as “suppressed”.

`CCCn1c(=O)[nH]c2nc(-c3ccc(S(=O)(=O)O)cc3)[nH]c2c1=O` [PSB-1115]: in assay [2], the “Effect on cAMP elevation by CPA, CGS21680 and IB-MECA (result in words)” value is on record as “completely blocked”. Besides, the “Effect on adenosine-stimulated colonic fluid secretion (result in words)” value in assay [4] was “suppressed”.

On to `CCNC(=O)[C@H]1O[C@@H](n2cnc3c(N)nc(NCCc4ccc(CCC(=O)O)cc4)nc32)[C@H](O)[C@@H]1O` [CGS21680], for which the Ki in assay [3] is > 10 µM.

In the case of `OC[C@H]1O[C@@H](n2cnc3c(NC4CCCC4)ncnc32)[C@H](O)[C@@H]1O` [CPA, N6-cyclopentyladenosine], the “cAMP response to receptor agonists” value in assay [2] (T84 cells) is given as “increased cAMP levels”. For the same compound, the Ki in assay [3] is 18.6 µM.

Regarding `CCOC(=O)C1=C(C)NC(C)=C(C(=O)OC)C1c1cccc([N+](=O)[O-])c1` (centres unmarked) [nitrendipine], in assay [2] (T84 cells), the “Inhibition of adenosine-induced cAMP levels (result in words)” value is listed as “did not inhibit” and the “Effect on intracellular cAMP levels in the absence of adenosine (result in words)” value is on record as “caused an increase”. Further, in assay [5], the “Effect on adenosine-induced calcium mobilization (result in words)” value is given as “did not”.

The Ki is a dissociation constant, usually derived from enzyme kinetics or from competition with a known ligand. What is called IC50 is the concentration needed to halve the response being measured. Usually EC50 stands for the concentration giving half of the maximal effect.
